Data: US11155561B2, “Substituted glutarimides as Btk inhibitors” (SHANGHAI MEIZER PHARMACEUTICALS CO., LTD., priority 2017, dated 2021)

What was measured:
[1] = system: DOHH2 cells (human B cell lymphoma cells); experiment: Inhibition of proliferation of DOHH2 cells by CTG assay; type: cell-based; details: DOHH-2, compound 10 μM, 72 hours
Protocol: (§1) Example 8 Testing the Inhibitory Effect of Formula Compounds on the Proliferation of DOHH2 Cells (Human B Cell Lymphoma Cells) and SU-DHL-6 (Human B Cell Lymphoma Cells) by CTG Assay
(§2) The […] was used to determine the inhibitory effect of the compounds on the proliferation of DOHH2 cells (available from ATCC) and SU-DHL-6 cells (available from ATCC) in vitro. Cells were cultured and compounds were prepared referring to Example 7. The cell plating density was 1×10^4 cells/well for DOHH2 cells, and 1.5×10^4 cells/well for SU-DHL-6 cells. The culture time after the administration was 72 hours. After that an appropriate amount of CTG reagent was added, the luminescence value was measured, and the inhibition rate was calculated.

[2] = system: SU-DHL-6 (human B cell lymphoma cells); experiment: Inhibition of proliferation of SU-DHL-6 cells by CTG assay; type: cell-based; details: compound 10 μM, 72 hours
Protocol: as §1, §2

Btk [3] = biological target: T1, Btk (Homo sapiens, UniProt Q06187); experiment: Inhibition activity of compounds on Btk by Caliper assay; type: biochemical; details: compound 100 nM, Btk kinase
Protocol: Example 5 Testing the Inhibition Activity of Compounds on Btk by Caliper Assay
The experimental steps were as follows:
Preparation of 1× kinase reaction buffer (50 mM HEPES, PH 7.5; 0.0015% Brij-35) and kinase reaction termination solution (100 mM HEPES, PH 7.5; 0.0015% Brij-35; 0.2% Coating Reagent; 50 mM EDTA);
Preparation of experimental samples: 100 μL of 5 μM sample solution (dissolved in 100% DMSO) was added to a 96-well plate to obtain a 50× sample solution. As a control, two wells were set containing only 100 μL of 100% DMSO on the same plate. One was served as a control without samples and the other was served as a control without enzymes. 10 μL of sample and 90 μL of 1× kinase reaction buffer were added to a 96-well plate as a transfer plate. The transfer plate was shaken for 10 minutes.
Preparation of the test plate: taking 5 μL each of the prepared samples in the 96-well transfer plate into a 384-well plate.
Kinase reaction: to 5 μL of 5× compound solution (dissolved in DMSO, diluted 10 times with water) was added 10 μL of 2.5× Btk kinase solution (kinase was diluted with 1× kinase reaction buffer), and incubated at room temperature for 10 min, then 10 μL of 2.5× substrate peptide solution (FAM-labeled peptide and ATP were diluted with 1× kinase reaction buffer) was added.
Termination of the kinase reaction: 25 μL of kinase termination solution was added after being reacted at 28° C. for a period of time.
The fluorescence (F) was tested on a Caliper and data was collected.
The inhibition rate of kinase activity was calculated: the percent inhibition rate of kinase activity=(FDMSO control−Fsample)/(FDMSO control−Fnegative control)×100, with DMSO as the solution control, and no kinase as the negative control.

[4] = system: RPMI 8226 cells (human multiple myeloma cells); experiment: Inhibition of proliferation of RPMI 8226 cells by CCK8 assay; type: cell-based; details: 48 hours
Protocol: Example 7 Testing the Inhibitory Effect of Formula Compounds on the Proliferation of RPMI 8226 Cells (Human Multiple Myeloma Cells) by CCK8 Assay
The inhibitory effect of the compound on the proliferation of RPMI 8226 cells (commercially available from ATCC) was determined by the CCK8 assay in vitro. The experimental steps were as follows:
RPMI 8226 cells were cultured in 1640 medium containing 10% calf serum, seeded in a 96-well plate with 2×10^5 cells/well, and placed in a 37° C., 5% CO2 incubator. The compound was dissolved in dimethyl sulfoxide (DMSO) to obtain a solution with a concentration of 10 mM, and then diluted to the desired concentration with a phosphate buffer solution. The solution was added to the above 96-well plate. Each concentration has 2 wells with 10 μl per well. Each concentration was tested in duplicate. As a control, DMSO was diluted in the corresponding gradient and then added to the plate.
After the 96-well plate was cultured in a 37° C., 5% CO2 cell incubator for 48 hours, 10 μl of CCK8 solution was added to each well, and it was cultured in the incubator for another 1 to 4 hours. The light absorption value at 465 nm was measured.
The relative survival rate of the cells after the compound treatment was calculated based on the light absorption value.
The IC50 of the compound against RPMI 8226 cells was calculated by software.

Btk [5] = biological target: T1, Btk; experiment: Btk protein degradation activity by Western blot in RPMI8226 cells; type: cell-based; design: degradation activity of the compound (10 μM) on Btk protein in RPMI8226 cells; endogenous in cells; host or cells: RPMI8226; details: compound 10 μM, 24 hours
Protocol: Example 6 Testing the Btk Protein Degradation Activity of Compounds by Western Blot
Cell lines: RPMI8226 Cell line was cultured in RPMI1640 medium containing 10% calf serum in a 37° C., 5% CO2, and saturated humidity incubator.
DMSO control group and compound intervention group (10 μM) were set. Cells was collected after the treatment for 24 hours, then 100 μL of pre-chilled cell lysate was added and cells were lysed on ice for 30 minutes. Total cell protein was extracted, and protein concentration was determined and quantified by […] (BCA) method. After routine gelatinization, loading, electrophoresis, then transferring to membrane and blocking, rabbit anti-human Btk (1:500) was added, and incubated at 4° C. overnight. The mixture was rinsed and then horseradish peroxidase labeled goat anti-rabbit IgG (1:5000) was added. After the rinsing it was developed by the ECL developing solution, the Bio-Rad gel imaging system was used for scanning and imaging, and the computer software was used for analysis. […] (GAPDH) was used as an internal control.
Image J software was used to analyze the gray scale of each band to calculate the Btk protein degradation rate of the compound.

T1 sequence (Q06187 whole entry): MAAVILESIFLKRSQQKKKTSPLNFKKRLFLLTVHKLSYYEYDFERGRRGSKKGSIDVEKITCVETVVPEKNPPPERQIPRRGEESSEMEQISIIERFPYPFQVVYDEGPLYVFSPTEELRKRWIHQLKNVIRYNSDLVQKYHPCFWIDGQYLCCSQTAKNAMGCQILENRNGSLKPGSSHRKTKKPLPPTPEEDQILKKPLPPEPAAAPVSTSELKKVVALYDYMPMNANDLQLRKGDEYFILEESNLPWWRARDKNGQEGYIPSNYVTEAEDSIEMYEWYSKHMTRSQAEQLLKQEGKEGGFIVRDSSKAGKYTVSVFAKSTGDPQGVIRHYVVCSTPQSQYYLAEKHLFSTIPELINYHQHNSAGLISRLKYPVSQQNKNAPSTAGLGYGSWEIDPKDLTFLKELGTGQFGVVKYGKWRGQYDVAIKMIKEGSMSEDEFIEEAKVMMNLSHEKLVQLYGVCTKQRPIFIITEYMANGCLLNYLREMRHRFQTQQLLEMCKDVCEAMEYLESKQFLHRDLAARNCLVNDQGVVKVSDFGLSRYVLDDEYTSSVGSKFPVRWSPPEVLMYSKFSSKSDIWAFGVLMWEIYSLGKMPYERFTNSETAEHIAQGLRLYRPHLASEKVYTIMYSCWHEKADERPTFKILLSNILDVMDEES

inhibition at 0.1 µM (Btk [3]) | IC50 [4] | Structure (SMILES) | inhibition at 10 µM [1] | inhibition at 10 µM [2] | Degradation activity (Btk [5])
92% | 34 µM | Nc1ncnc2c1c(-c1ccc(Oc3ccccc3)cc1)nn2[C@@H]1CCCN(CCCCCC(=O)Nc2cccc3c2C(=O)N(C2CCC(=O)NC2=O)C3=O)C1 (stereo partly shown) [Compound 3] | 87% | 60% | ++++ (“++++” means the degradation rate is greater than 90%)
99% | 83 µM | Nc1ncnc2c1c(-c1ccc(Oc3ccccc3)cc1)nn2C1CCCN(CCOCCOCCOc2cccc3c2C(=O)N(C2CCC(=O)NC2=O)C3=O)C1 (stereo not shown) [Compound 7] | 63% | 53% | ++++ (“++++” means the degradation rate is greater than 90%)
99% | 6 µM | Nc1ncnc2c1c(-c1ccc(Oc3ccccc3)cc1)nn2C1CCCN(CCOCCOCCNc2cccc3c2C(=O)N(C2CCC(=O)NC2=O)C3=O)C1 (stereo not shown) [Compound 14] | 98% | 87% | ++++ (“++++” means the degradation rate is greater than 90%)
95% |  | Nc1ncnc2c1c(-c1ccc(Oc3ccccc3)cc1)nn2C1CCCN(CCOCCOCCOCCOc2cccc3c2C(=O)N(C2CCC(=O)NC2=O)C3=O)C1 (stereo not shown) [Compound 16] | 84% | 71% | ++++ (“++++” means the degradation rate is greater than 90%)
